Results from patent publication US12428377B2, “Sodium-hydrogen exchanger 3 inhibitor compounds” (Eli Lilly and Company, priority 2019, dated 2025).
pIC50: −log10 of the molar value.

Experiments:
human NHE3 = molecular target: T1, human NHE3 (Homo sapiens, UniProt P48764); experiment: In vitro NHE3 inhibition activity (intracellular pH recovery, BCECF-AM, NHD C8 cells overexpressing human NHE3); format: cell-based; details: geometric mean of individual IC50
T1 construct: myc; expressed in transfected cells
T1 sequence (P48764 26-834): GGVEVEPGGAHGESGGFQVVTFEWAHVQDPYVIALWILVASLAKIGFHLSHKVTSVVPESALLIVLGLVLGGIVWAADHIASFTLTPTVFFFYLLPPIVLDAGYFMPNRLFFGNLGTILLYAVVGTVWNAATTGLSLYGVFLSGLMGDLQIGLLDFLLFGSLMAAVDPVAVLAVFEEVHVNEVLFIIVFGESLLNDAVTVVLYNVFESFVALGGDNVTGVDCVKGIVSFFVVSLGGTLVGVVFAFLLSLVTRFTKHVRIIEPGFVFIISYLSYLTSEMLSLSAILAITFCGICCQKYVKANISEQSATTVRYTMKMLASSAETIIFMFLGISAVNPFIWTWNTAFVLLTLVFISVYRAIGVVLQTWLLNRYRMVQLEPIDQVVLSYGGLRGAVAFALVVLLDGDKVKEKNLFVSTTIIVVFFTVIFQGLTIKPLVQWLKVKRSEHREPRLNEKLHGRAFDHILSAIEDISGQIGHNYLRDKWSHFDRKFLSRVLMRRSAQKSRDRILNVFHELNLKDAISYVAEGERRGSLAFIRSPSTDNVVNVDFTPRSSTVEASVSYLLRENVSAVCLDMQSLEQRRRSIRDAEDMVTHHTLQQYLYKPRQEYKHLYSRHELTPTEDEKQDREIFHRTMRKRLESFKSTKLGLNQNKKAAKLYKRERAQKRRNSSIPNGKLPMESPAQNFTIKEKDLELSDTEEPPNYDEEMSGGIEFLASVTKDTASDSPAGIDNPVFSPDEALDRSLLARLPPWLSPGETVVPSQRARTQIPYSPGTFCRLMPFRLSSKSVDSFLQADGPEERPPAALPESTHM
Excerpt: In Vitro NHE3 Inhibition Activity
To create an NHE3 assay, cells selectively expressing NHE3 are generated by overexpressing human NHE3 in an endogenously NHE-deficient cell line. The NHE-deficient cell line is created by chemical-induced mutagenesis. After the mutagenesis, NHE-deficient cells are selected by subjecting lithium (Li) loaded cells to an acidic extracellular environment. Under these conditions, NHE exchanges intracellular Li^+ for extracellular protons, thus only NHE-deficient cells can avoid a toxic intracellular acidosis and survive.
An NHE-deficient cell line, NHD C8, is generated by mutagenesis and selection from the cell line Dede (ATCC® CCL-39™). The mutagenesis is induced by treating Dede CCL-39 cells with EMS (Sigma-Aldrich) in growth media at a final concentration of 500 μg/ml for 20 h. […]
To measure NHE activity, the intracellular pH of the cells is reduced by addition of NH4Cl. The sodium-dependent intracellular pH change is then measured by the intracellular pH-sensitive fluorescein dye, BCECF-AM (Molecular Probes-ThermoFisher Scientific). […] The plate is immediately read for fluorescent intensity at an excitation wavelength of 505 nm and emission wavelength of 550 nm. […]

Male Sprague-Dawley rats = experiment: Effect of Example 1 on sodium absorption (urinary sodium excretion after oral NaCl bolus); format: in vivo, rat; details: 2 h urine; for Urinary Sodium to Creatinine Ratio: mean ± SEM
Description: Effect of Example 1 on Sodium Absorption
Urinary sodium excretion following an oral bolus dose of sodium chloride is an indirect measure of sodium absorption in the intestine.
Male Sprague-Dawley with body weights ranging from 200 to 250 g are randomized into groups based on equal mean body weights. Henceforth the following formulation is referred to as “1% HEC”: 1% hydroxyethyl cellulose (HEC) and 0.25% Tween® 80 with antifoam vehicle in water. Example 1 at 0.1 mg/mL (final dose 1 mg/kg dosed in 10 mL/kg volume) is formulated with 1% HEC in a glass vial containing a pre-weighed amount of compound, and then probe sonicating until it appears as a uniform suspension. […] The subsequent dosing solutions of Example 1 are prepared by serial dilutions with 1% HEC. NaCl at 10 mg/ml (final dose 200 mg/kg dosed in 20 ml/kg volume) is formulated by adding sterile water.
On the day before the study, the animals are placed into clean cages without food but with access to water for an overnight fast. On the day of the study, rats are orally dosed with vehicle or varying doses of Example 1. 30 min later, animals are dosed with NaCl, then immediately transferred to metabolic cages. Urine samples are collected for 2 h. Net urine volume is recorded. Urinary sodium, and creatinine are assessed using a clinical biochemistry analyzer.
Values expressed as the ratio of urinary sodium to creatinine (mM/mM) are calculated and presented as mean±SEM. The curves are fitted with 4-parameter logistic curve fitting tool GraphPad Prism 6 to calculate the ED50. For the purpose of curve fitting, the dose of Example 1 is artificially set to 0.001 mg/kg in the software for the vehicle-alone group.

## CN1Cc2c(Cl)cc(Cl)cc2[C@H](c2cccc(S(=O)(=O)NCCOCCOCCN/C(=N\C#N)NCCCCN/C(=N/C#N)NCCOCCOCCNS(=O)(=O)c3cccc([C@@H]4CN(C)Cc5c(Cl)cc(Cl)cc54)c3)c2)C1 [Example 1, 2-Cyano-1-[4-[[N′-cyano-N-[2-[2-[2-[[3-[(4S)-6,8-dichloro-2-methyl-3,4-dihydro-1H-isoquinolin-4-yl]phenyl]sulfonylamino]ethoxy]ethoxy]ethyl]carbamimidoyl]amino]butyl]-3-[2-[2-[2-[[3-[(4S)-6,8-dichloro-2-methyl-3,4-dihydro-1H-isoquinolin-4-yl]phenyl]sulfonylamino]ethoxy]ethoxy]ethyl]guanidine]
Human NHE3
  pIC50: 7.42
Male Sprague-Dawley rats; Rattus norvegicus, oral, NaCl bolus 200 mg/kg
  ED50: 0.058 mg/kg
Male Sprague-Dawley rats; oral 0.03 mg/kg
  Urinary Sodium to Creatinine Ratio: 1.19 ± 0.19 mM/mM
Male Sprague-Dawley rats; oral 0.1 mg/kg
  Urinary Sodium to Creatinine Ratio: 0.80 ± 0.23 mM/mM
Male Sprague-Dawley rats; oral 0.3 mg/kg
  Urinary Sodium to Creatinine Ratio: 0.37 ± 0.06 mM/mM
Male Sprague-Dawley rats; oral 1.0 mg/kg
  Urinary Sodium to Creatinine Ratio: 0.63 ± 0.23 mM/mM
